Experiments:
[1] = molecular target: T1, human KAT8 (residues 125–458) (Homo sapiens, UniProt Q9H7Z6); assay: MALDI-TOF MS enzymatic assay of KAT8-catalysed acetylation of H4K*16 histone peptides; format: biochemical; conditions: standard conditions: 2 µM KAT8, 100 µM histone peptide, 300 µM AcCoA, 50 mM HEPES, 0.1 mM EDTA, 1 mM DTT, pH 8.0, 37 °C
T1 construct: Recombinant human KAT8 (residues 125–458) was expressed in E. coli; His tag; made in house; host or cells: E. coli
T1 sequence (Q9H7Z6 125-458): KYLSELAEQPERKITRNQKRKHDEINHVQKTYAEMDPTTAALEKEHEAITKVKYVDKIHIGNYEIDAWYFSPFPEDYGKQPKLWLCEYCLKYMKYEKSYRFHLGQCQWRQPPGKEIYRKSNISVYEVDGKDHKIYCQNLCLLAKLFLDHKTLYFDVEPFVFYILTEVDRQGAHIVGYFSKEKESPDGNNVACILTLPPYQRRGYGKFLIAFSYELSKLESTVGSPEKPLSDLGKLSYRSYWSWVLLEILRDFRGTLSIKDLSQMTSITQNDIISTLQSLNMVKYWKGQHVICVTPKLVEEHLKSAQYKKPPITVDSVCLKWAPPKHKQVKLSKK
Description: The biocatalytic potential of KAT8 was assessed through a MALDI-TOF MS based enzymatic assay. Human KAT8 was incubated in the presence of H4K*16 peptides and AcCoA under “standard conditions” (2 µM KAT8, 100 µM histone peptide, 300 µM AcCoA; assay buffer: 50 mM Hepes, 0.1 mM EDTA, 1 mM DTT, pH = 8.0) and the production of acetylated peptides was monitored at different time points. […] KAT8-catalysed acetylation of H4K16 was quantitative after 1 h, in line with previous findings (Figure 3a and Figure S17). […] This is an interesting observation, given the well-documented capacity of some histone lysine methyltransferases (KMTs) that introduce higher methylation states (i.e., Kme2 and Kme3) on histone tails starting from Kme as a substrate. […]
KAT8 enzymatic activity towards H4K*16 histone peptides was measured at different time points under standard conditions (2 µM KAT8, 100 µM peptide, 300 µM AcCoA) in reaction buffer (50 mM HEPES, 0.1 mM EDTA, 1 mM DTT, pH = 8.0) as previously described The reactions were performed in a final volume of 50 µL and shaken at 37 °C, using a Thermomixer C (750 rpm). KAT8 activity was stopped at a given time point by the addition of TFA 10% in Milli-Q water, and reactions were analysed by MALDI-TOF MS employing α-Cyano-4-hydroxycinnamic acid (CHCA) matrix.

[2] = molecular target: T1, human KAT8 (residues 125–458); assay: MALDI-TOF MS kinetics assay of KAT8-catalysed acetylation under steady-state conditions; format: biochemical; conditions: pH 7.4, 37 °C
Description: Next, we investigated the catalytic efficiencies for the histone peptides that were observed as KAT8 substrates. Kinetics analyses were carried out under steady-state conditions by incubating saturating concentrations of AcCoA against different concentrations of histone peptides.
Histone peptides kinetics evaluation was carried out with a MALDI-TOF MS assay under steady-state conditions as previously described. Briefly, dilution series of H4K*16 peptides (1050 or 700–0 µM) were incubated with AcCoA (100 µM; > 5 x KM value of AcCoA) and the reactions were started by the addition of KAT8 (570 nM) in kinetic buffer (50 mM HEPES, 0.1 mM EDTA, 0.01% TRITON-X, pH = 7.4). AcCoA stock solutions in Milli-Q water were calibrated using a NanoDrop 2000 spectrophotometer (Thermo Scientific, Waltham, MA, USA), with molar extinction coefficient ε260nm = 16,400 M^−1 cm^−1. Reactions were incubated for 20 min at 37 °C, shaken at 750 rpm and quenched with TFA 10% in Milli-Q water at different time points within the linear production of acetylated peptides. Quantification of the acetylated peptide produced was extrapolated, at any concentration point, with FlexAnalysis software, considering all the ionic species. Kinetic parameters were obtained by fitting V0 values and histone peptide concentrations to the Michaelis–Menten equation using the GraphPad Prism 5 software. Kinetic experiments were carried out in replicates (n = 2 or 3) and final values are reported as the mean value ± SD.

[3] = molecular target: T1, human KAT8 (residues 125–458); conditions: lysine analogue on histone peptide; cited from earlier work
Description: The biocatalytic potential of KAT8 was assessed through a MALDI-TOF MS based enzymatic assay. Human KAT8 was incubated in the presence of H4K*16 peptides and AcCoA under “standard conditions” (2 µM KAT8, 100 µM histone peptide, 300 µM AcCoA; assay buffer: 50 mM Hepes, 0.1 mM EDTA, 1 mM DTT, pH = 8.0) and the production of acetylated peptides was monitored at different time points. […] KAT8-catalysed acetylation of H4K16 was quantitative after 1 h, in line w ... || Subsequently, we investigated the role of the geometrically constrained and steric lysine analogues for KAT8 catalysis. The KAT8-catalysed reaction of H4KE16 produced 64% of acetylated peptide after 1 h, and reached completion within 3 h (Figure 3i and Figure S17).

| Substance | acetylated peptide produced after 1 h [1] | kcat^app ([2]; 570 nM KAT8, 100 µM AcCoA, peptide 1050 or 700–0 µM, 50 mM HEPES, 0.1 mM EDTA, 0.01% TRITON-X, mean ± SD, n = 2 or 3, SD) [s⁻¹] | Km ([2]; 570 nM KAT8, 100 µM AcCoA, peptide 1050 or 700–0 µM, 50 mM HEPES, 0.1 mM EDTA, 0.01% TRITON-X, mean ± SD, n = 2 or 3, SD, read-out: KM^app) [µM] | kcat^app/KM^app ([2]; catalytic efficiency from kcat^app and KM^app) [M⁻¹ s⁻¹] | KAT8 substrate quality [3] |
| --- | --- | --- | --- | --- | --- |
| GGAK16RHRKVLRDNIQ [H4K16, histone H4 peptide, residues 13–27, with natural lysine at position 16] | quantitative | 0.25 ± 0.013 | 437 ± 107 | 567 | – |
| homolysine [hK] | – | – | – | – | good KAT8 substrate |
| γ-thialysine | – | – | – | – | excellent substrate |
